PubChem BioAssay (NCI)
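48-hour exposure; five concentrations; linearly interpolated endpoints. GI50: concentration for 50% inhibition of growth. Definition used: TGI = concentration required for complete inhibition of growth.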 Where a SMILES comes first, the peptide text is derived from it. [ ]: non-standard residue; d: D form. The star is where a group is joined. NMeAc5c = CNC1(C(=O)O)CCCC1; Boc = CC(C)(C)OC(=O)*; OBn = c1ccc(CO*)cc1

Assays:
Assay in all cases: NCI tumour cell line growth inhibition, 48 h
UACC-62 melanoma = tested on: UACC-62 melanoma
SF-539 CNS = tested on: SF-539 CNS
ACHN renal = tested on: ACHN renal
SF-268 CNS = tested on: SF-268 CNS
MDA-MB-231 breast = tested on: MDA-MB-231 breast
PC-3 prostate = tested on: PC-3 prostate
HL-60(TB) leukemia = tested on: HL-60(TB) leukemia
BT-549 breast = tested on: BT-549 breast
HOP-92 NSCLC = tested on: HOP-92 NSCLC
HOP-62 NSCLC = tested on: HOP-62 NSCLC
OVCAR-3 ovarian = tested on: OVCAR-3 ovarian
RXF 393 renal = tested on: RXF 393 renal

| Compound | TGI (UACC-62 melanoma) [µM] | TGI (SF-539 CNS) [µM] | TGI (ACHN renal) [µM] | TGI (SF-268 CNS) [µM] | TGI (MDA-MB-231 breast) [µM] | TGI (PC-3 prostate) [µM] | TGI (HL-60(TB) leukemia) [µM] | TGI (BT-549 breast) [µM] | TGI (HOP-92 NSCLC) [µM] | TGI (HOP-62 NSCLC) [µM] | TGI (OVCAR-3 ovarian) [µM] | TGI (RXF 393 renal) [µM] | GI50 (PC-3 prostate) [nM] |
| --- | --- | --- | --- | --- | --- | --- | --- | --- | --- | --- | --- | --- | --- |
| COc1ccc(N/N=C2\CCOc3ccc(C)cc3C2=O)cc1 | 80.4 | > 100 | > 100 | > 100 | > 100 | > 100 | > 100 | 87.5 | > 100 | > 100 | > 100 |  |  |
| CC(=O)O[C@@H]1[C@H](C(C)C)[C@@H](OC(C)=O)C/C(C)=C/CC[C@]2(C)O[C@@H]12 | > 100 |  | > 100 | > 100 | > 100 | > 100 | > 100 | > 100 | > 100 | > 100 | > 100 | > 100 |  |
| CCCCCCCCCCCCCCNC(=O)CCC(NC(=O)c1ccc(N(C)Cc2cnc3nc(N)nc(N)c3n2)cc1)C(=O)NCCCCCCCCCCCCCC (stereo not given) | 22.2 | 16.3 | 30.1 | 22.4 | > 44.8 | 22.5 | 0.758 | 41.1 | 63.8 | 21.2 | > 46 | 34.2 |  |
| C=CCN1C[C@H](C)N([C@H](c2ccc(C(=O)NC(CC)CC)cc2)c2cccc(OC)c2)C[C@H]1C | 51.1 | 43.4 | > 100 | > 100 | 75.6 | > 100 | 32.4 | 99.6 | > 100 | > 100 | > 100 | > 100 |  |
| CC(=O)OC1CC(OC2C(O)CC(OC3C(O)CC(OC4CCC5(C)C(CCC6C5CC(O)C5(C)C(C7=CC(=O)OC7)CCC65O)C4)OC3C)OC2C)OC(C)C1OC1OC(CO)C(O)C(O)C1O (stereo not given) | 0.404 | 0.0891 | 0.146 | 0.185 | 2.41 | 0.206 | 0.22 | 0.167 | 0.517 | 0.0956 | 0.15 |  | 52.2 |
| CC(=O)NC(Cc1ccc(O)cc1)C(=O)O (stereo not given) | > 100 |  | > 100 | > 100 | > 100 | > 100 | > 100 | > 100 | > 100 | > 100 | > 100 | > 100 |  |
| O=C1C=CC(=O)c2c1ccc1c3ccccc3n(CCCCCCCCCCCCn3c4ccccc4c4ccc5c(c43)C(=O)C=CC5=O)c21 | > 100 | > 100 | > 100 | > 100 | > 100 | > 100 | > 91.3 | > 100 | > 100 | > 100 | > 100 | > 100 |  |
| CCCCCCc1cc2cc(-c3csc(CC#N)n3)c(=O)oc2cc1O | > 100 | > 64.5 | > 100 | > 100 | 55.2 | > 100 | > 66.9 | > 60.2 | 69 | > 100 | > 100 | > 89.2 |  |
| COc1ccc2cc(NC(=O)N/N=C\c3ccc([N+](=O)[O-])cc3)ccc2c1 | > 100 |  | > 100 | 55.4 | > 100 | > 100 | > 100 | 76.5 | > 100 | 48.5 | > 100 | 45.1 |  |
| Nn1c(-c2ccccc2)nn(C(=O)c2ccccc2)c1=O |  | > 100 | > 100 | > 100 | > 100 | > 100 | > 100 | > 100 | > 100 | > 100 | > 100 | > 100 |  |
| O=C(N/N=C(/COc1ccc(Cl)cc1)N=Cc1ccncc1)c1ccncc1 | > 100 | > 100 | > 100 | > 100 | > 100 | > 100 | > 100 | > 100 | > 100 | > 100 | > 100 | > 100 |  |
| Nc1nc(Cl)cc(NCC2(CO)CC(=O)C2)n1 | > 100 | > 100 | > 100 | > 100 | > 100 | > 100 | > 100 | > 100 | > 100 | > 100 | > 100 | > 100 |  |
| COc1cc(Br)cc2cc(-c3cn4ccsc4n3)c(=O)oc12 | 75.9 | > 100 | > 100 | > 100 | 80.9 | > 100 | > 100 | 50.7 | 71.9 | > 100 | > 100 | 75.7 |  |
| CN1CCc2cc(N)cc3c2C1Cc1ccc(O)c(O)c1-3 (stereo not given) | 70.4 | > 100 | 58.4 | > 100 | > 100 | > 100 | 98.7 | > 100 | > 100 | > 100 | 72.8 | > 100 |  |
| CCCN(C(=O)c1ccccc1)C(C#N)c1ccc(C(C#N)N(CCC)C(=O)c2ccccc2)cc1 (stereo not given) | > 100 | 87.6 | > 100 | > 100 | > 100 | > 100 | > 100 | > 100 | 64.4 | 99.3 | > 100 | > 100 |  |
| COC(=O)c1cc(=O)nc2sc3cccc(C)c3n12 | > 100 | > 100 | 42.8 | > 100 | > 100 | > 100 | 62.6 | > 100 | 69.1 | > 100 | 82.8 | > 100 |  |
| Cc1ccccc1C(=O)N1CCc2c([nH]c3ccccc23)C1 | 31.6 | 48.4 | > 100 | > 100 | 34.1 | 33.9 | 39.2 | 42.8 | 44.4 | > 100 | 74.1 | 43.1 |  |
| CCOC(=O)C(SCCO)C(C(=O)OCC)n1cnc2c(=O)[nH]c(NC(C)=O)nc21 (stereo not given) | > 100 | > 100 | > 100 | > 100 | > 100 | > 100 | > 100 | > 100 | > 100 | > 100 | > 100 |  |  |

| Compound | TGI (UACC-62 melanoma) [µM] | TGI (SF-539 CNS) [µM] | TGI (ACHN renal) [µM] | TGI (SF-268 CNS) [µM] | TGI (MDA-MB-231 breast) [µM] | TGI (PC-3 prostate) [µM] | TGI (HL-60(TB) leukemia) [µM] | TGI (BT-549 breast) [µM] | TGI (HOP-92 NSCLC) [µM] | TGI (HOP-62 NSCLC) [µM] | TGI (OVCAR-3 ovarian) [µM] | TGI (RXF 393 renal) [µM] | GI50 (PC-3 prostate) [nM] |
| --- | --- | --- | --- | --- | --- | --- | --- | --- | --- | --- | --- | --- | --- |
| CN(C(=O)C(Cc1ccccc1)NC(=O)OC(C)(C)C)C1(C(=O)NC(Cc2ccccc2)C(=O)OCc2ccccc2)CCCC1 (stereo not drawn) (Boc-Phe-[NMeAc5c]-Phe-OBn; configuration not given here) | 71.2 | > 100 | > 100 | > 100 | 87 | > 100 | 47.5 | > 100 | > 100 | > 100 | > 100 | > 100 |  |
| CC1(C)OC(=O)N(c2ccccc2)C12C=Cc1cc([N+](=O)[O-])cc([N+](=O)[O-])c1O2 (stereo not given) | > 100 |  | > 100 | > 100 | > 100 | > 100 | > 100 | > 100 | > 100 | > 100 | > 100 | > 100 |  |
| C=CC1(C)CCC2C(=CCC3C2(C)CC(O)C(O)C3(C)COC2OC(C(=O)O)C(O)C(O)C2O)C1 (stereo not given) (tested in a mixture with another compound) | > 100 | > 100 | > 100 | > 100 | > 100 | > 100 |  | > 100 | > 100 | > 100 | > 100 | > 100 |  |
| CC(C)=CCc1c2c(c3occ(-c4ccc(O)cc4)c(=O)c3c1O)CC(C(C)(C)O)O2 (stereo not given) | 30 | 41.1 | 28 | 48.5 | 27.6 | 26.7 | 34.4 | 31 | 33.5 | 33.6 | 27.9 | 30.3 |  |
| O=c1[nH]c(Nc2cccc(CC(F)(F)F)c2)nc2nc[nH]c12 | > 100 | > 100 | > 100 | > 100 | > 100 | > 100 | > 100 | > 100 | > 100 | > 100 | > 100 |  |  |
| C1CN(c2nc3c(nnc4nc(N5CCOCC5)sc43)s2)CCO1 | > 100 | > 100 | > 100 | > 100 | > 100 | > 100 | > 100 | > 100 | > 100 | > 100 | > 100 | > 100 |  |
| ClCCN1CCC2(CC1)SSC1(CCN(CCCl)CC1)S2 | 71 | 56.3 | > 100 | 30.9 | > 100 | > 100 | 76.8 | > 100 | 29.2 | > 100 | 63.3 |  |  |
| NC(N)=N/N=C/c1c(-c2ccc(N)cc2)nc2sccn12 | > 100 | 63.9 | 77.9 | > 100 | 48.4 | 58.7 | 47.9 | > 100 | > 100 | 79 | 67.3 | 39.9 |  |
| N#CC1(C#N)N[C@@H](c2ccsc2)[C@H]2C(=O)N(c3ccccc3)C(=O)[C@H]21 | > 100 |  | > 100 | > 100 | > 100 | > 100 | 42 | > 100 | > 100 | > 100 | > 100 | > 100 |  |
| COc1cc2nc3n(c(=O)c2cc1OC)-c1ccc([N+](=O)[O-])cc1C3=O | > 100 | > 100 | > 100 | > 100 | > 100 | > 100 |  | > 100 | > 100 | > 100 | > 100 | 79.7 |  |
| C#CCNC(CS)C(=O)O (stereo not given) | > 100 |  | > 100 | > 100 | > 100 | > 100 | > 100 | > 100 | > 100 | > 100 | > 100 | > 100 |  |
| Cc1cn2c(/C=N/N=C(N)N)c(-c3cccc([N+](=O)[O-])c3)nc2s1 | 3.07 | 4.05 | 3.03 | 2.58 | 2.71 | 4.08 | 3.86 | 3.3 | 3.35 |  | 2.51 | 2.5 |  |
| O=C1/C(=C\c2ccccc2)C(NC2CCCCC2)c2ccccc21 (stereo not given) | 6.2 | 4.39 | 2.34 | 13 | 5.2 | 3.78 | 3.02 | 5.69 | 4.8 | 7.21 | 2.51 | 2.93 |  |
| CC[C@@H]1CC[C@@H]2[C@H](CC[C@]3(C)[C@@H](OC(C)=O)CC[C@@H]23)[C@H]1COC(C)=O | 88 | 67.9 | > 100 | 92.5 | 56.6 | > 100 | 39.2 | 87.9 | 69.8 | > 100 | 34.6 | 45.9 |  |
| c1ccc(-c2nc(-c3ccccc3SSc3ccccc3-c3nc(-c4ccccc4)nn3-c3ccccc3)n(-c3ccccc3)n2)cc1 | > 100 | > 100 | > 100 | > 100 | > 100 | > 100 | > 100 | > 100 | > 100 |  | > 100 | > 100 |  |
| CC(C)(C)OC(=O)NCCCCC1NC(=O)[C@@H]2Cc3c([nH]c4ccccc34)C(C3CCCCC3)N2C1=O (stereo not given in full) | > 100 |  | > 100 | > 100 | > 100 | > 100 | > 100 | > 100 | > 100 | > 100 | 47.5 | 25.6 |  |
| NC(=O)NCCCC(NC(=O)OCCCCn1ccc(=O)[nH]c1=O)C(=O)O (stereo not given) | > 100 | > 100 | > 100 | > 100 | > 100 | > 100 | > 100 | > 100 | > 100 | > 100 | > 100 | > 100 |  |
| O=C1CSC(c2ccc(Cl)cc2)N1c1ccc(Oc2ccc(Cl)cc2)c(Cl)c1 (stereo not given) | 28.8 | 30.4 | 31.2 | 24 | 30.7 | 31.3 | 39 | 29 | 30.3 | 41.9 | 29 |  |  |
